Test results from US4803197A, “2,1-benzothiazepine-2,2-dioxide-5-carboxylic acid derivatives” (Ciba-Geigy Corporation, priority 1987, dated 1989).

Columns and labels:
carrageenin pleurisy = assay: carrageenin-induced pleurisy model of inflammation in the rat; assay type: in vivo; conditions: 10 mg/Kg p.o.
Protocol: Antiinflammatory activity is determined by measuring the inhibition of the edema and of the mononuclear cell influx after oral administration in the rat model in which pleurisy is first induced by injecting carrageenin into the pleural cavity, e.g. according to A. P. Almeida et al., J. Pharmacol. Exp. Therap. 214, 74 (1980).

bovine nasal cartilage [1] = assay: synovial catabolin-induced degradation of bovine nasal cartilage; assay type: cell-based; conditions: at a concentration of about 1×10^-5 M
Text: The inhibition of cartilage matrix degradation can also be similarly determined by measuring the decrease in proteoglycan release on synovial catabolin-induced degradation of bovine nasal cartilage.

bovine nasal cartilage [2] = assay: bovine nasal cartilage-synovium co-culture model of cartilage matrix degradation; assay type: cell-based; conditions: at a concentration of about 1×10^-5 M
Protocol: The inhibition of cartilage matrix degradation can be determined in vitro in the bovine nasal cartilage-synovium co-culture model of cartilage matrix degradation which is carried out as follows:
The proteoglycan matrix of bovine nasal septum cartilage is labeled in vitro by incorporation of ^35 S into glycosaminoglycan. Cartilage slices are incubated overnight in a sulfate free medium containing ^35 S-sodium sulfate. ^35 S-Labeled cartilage slices are co-cultured with normal synovium explants in multiwell tissue culture plates. After 4 days incubation a 100μl aliquot of medium is counted. Cartilage slices are hydrolyzed and a 100μl aliquot of cartilage hydrolysate is counted. The percent ^35 S released into the medium is determined and the percent inhibition of matrix degradation is calculated.

[3] = system: leukotriene and 5-HETE formation; assay: leukotriene and 5-HETE formation in whole blood after oral administration in rats; assay type: in vivo; conditions: 50 mg/Kg p.o.
Protocol: Furthermore inhibition of the formation of leukotrienes and 5-HETE is determined e.g. by measuring their concentration in whole blood after oral administration in rats.

[4] = system: accumulation of neutrophils; assay: accumulation of neutrophils into carrageenin-impregnated polyurethane sponges in the rat; assay type: in vivo; conditions: 25 mg/Kg p.o.
Text: The inhibition of the chemotactic activation of neutrophils can also be determined in vivo by measuring the inhibition of the accumulation of neutrophils into carrageenin impregnated polyurethane sponges after oral administration in the rat.

human neutrophils = assay: inhibition of binding of f-MLP to human neutrophils in vitro; conditions: at a concentration of about 1×10^-6 M; sodium salt
Protocol: The inhibition of the chemotactic activation of neutrophils is determined in vitro, e.g. by measuring the inhibition of the binding of f-MLP (formyl-methionylleucyl-phenylalanine) to human neutrophils in vitro as follows:
Human neutrophils are isolated by a modification of the procedure of Ferrante and Thong (J. Immunol. Methods 24:389, 1978). Red cells remaining in the neutrophil preparation are lysed by separate treatments with 0.83% NH4 Cl and 0.1M tris-HCl, pH 7.5. Neutrophils are incubated in Hanks' buffer at 0° C. for 60 minutes with 15 nM ^3 H-f-MLP and test compound. Aliquots of the incubates are filtered and total ^3 H-f-MLP bound is measured. Non-specific binding in the presence of excess non-radioactive f-MLP is substracted, and percent inhibition of binding by the test drug is calculated. Final concentrations of solvents such as dimethylacetamide or ethanol which may be used to dissolve the test compound cannot exceed 1% in the incubation mixture.

## O=C(Nc1ccc(Cl)cc1)C1=C(O)CS(=O)(=O)N(Cc2ccc(Cl)cc2)c2ccccc21.[Na] [Example 2, N-(4-chlorophenyl)-1-(4-chlorophenylmethyl)-1,3-dihydro-4-hydroxy-2,1-benzothiazepine-5-carboxamide-2,2-dioxide sodium salt]
Carrageenin pleurisy
  inhibition of edema formation in the pleurisy model of inflammation: significantly inhibits
  inhibition of mononuclear cell influx in the pleurisy model of inflammation: significantly inhibits
Bovine nasal cartilage [1]
  inhibition of release of proteoglycan in catabolin-induced degradation of cartilage: inhibits
Bovine nasal cartilage [2]
  inhibition of release of proteoglycan in synovium-induced degradation of cartilage: inhibits
[3]
  inhibition of 5-HETE formation in whole rat blood: effectively inhibits
  inhibition of leukotriene formation in whole rat blood: effectively inhibits
[4]
  accumulation of neutrophils into carrageenin-impregnated sponges: effectively diminishes
Human neutrophils
  inhibition of the binding of f-MLP to human neutrophils: effective in inhibiting
